From patent US12187713B2, “Immunomodulators, compositions and methods thereof” (Betta Pharmaceuticals Co., Ltd, priority 2019, dated 2025)

Biological target: PD-1/PD-L1 (Homo sapiens (Human), UniProt Q9NZQ7)
Assay: PD-1/PD-L1 Binding Assay (Alphascreen)
Outline: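 PD-1/PD-L1 binding detected by anti-6×His acceptor and streptavidin donor beads after 120 min in the dark at 25 °C. Beforehand, the two proteins were incubated 15 min at 25 °C with inhibitor at 0.015–300 nM (1% DMSO). IC50 comes from a log concentration–response curve.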

Sequence of PD-1/PD-L1 (Q9NZQ7 19-238): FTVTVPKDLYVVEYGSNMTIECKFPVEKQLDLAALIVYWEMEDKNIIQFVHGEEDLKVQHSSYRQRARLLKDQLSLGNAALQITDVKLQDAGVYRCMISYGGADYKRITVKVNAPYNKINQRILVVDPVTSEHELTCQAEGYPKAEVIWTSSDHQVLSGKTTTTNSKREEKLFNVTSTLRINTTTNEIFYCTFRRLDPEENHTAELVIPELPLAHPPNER

Row | Structure (SMILES) | IC50 (range symbols) [nM] | IC50 (numeric values) [nM]
1 | CNCC1CN(Cc2cc3nc(-c4cccc(-c5cccc(-c6nc7cc(CN8CCC[C@H]8C(=O)O)c(OC(F)F)cc7o6)c5C)c4C)oc3cc2OC(F)F)C1 [Example 45, ((6-(difluoromethoxy)-2-(3′-(6-(difluoromethoxy)-5-((3-((methylamino)methyl)azetidin-1-yl)methyl)benzo[d]oxazol-2-yl)-2,2′-dimethyl-[1,1′-biphenyl]-3-yl)benzo[d]oxazol-5-yl)methyl)-L-proline] | 0.1 to 5 | –
2 | Cc1c(-c2nc3cc(CN4CCC[C@H]4C(=O)O)c(OC(F)F)cc3o2)cccc1-c1cccc(N2CCC(NCC3(CO)CC3)CC2)c1C [Example 307, ((6-(difluoromethoxy)-2-(3′-(4-(((1-(hydroxymethyl)cyclopropyl)methyl)amino)piperidin-1-yl)-2,2′-dimethyl-[1,1′-biphenyl]-3-yl)benzo[d]oxazol-5-yl)methyl)-L-proline] | 0.1 to 5 | –
3 | Cc1c(-c2ccc(CN3CC[C@@H](c4nnn[nH]4)C3)c(F)c2)cccc1-c1cccc(-c2nc3cc(CN4CCC[C@H]4C(=O)O)c(OC(F)F)cc3o2)c1C [Example 251, ((2-(4″-(((R)-3-(1H-tetrazol-5-yl)pyrrolidin-1-yl)methyl)-3″-fluoro-2,2′-dimethyl-[1,1′:3′,1″- terphenyl]-3-yl)-6-(difluoromethoxy)benzo[d]oxazol-5-yl)methyl)proline] | 5 to 50 | –
4 | Cc1c(-c2nc3cc(CN4CCC[C@H]4C(=O)O)c(OC(F)F)cc3o2)cccc1-c1cccc(-c2nc3cc(CN4CCC4(C)O)c(OC(F)F)cc3o2)c1C (stereo partly drawn) [Example 37, ((6-(difluoromethoxy)-2-(3′-(6-(difluoromethoxy)-5-((2-hydroxy-2-methylazetidin-1-yl)methyl)benzo[d]oxazol-2-yl)-2,2′-dimethyl-[1,1′-biphenyl]-3-yl)benzo[d]oxazol-5-yl)methyl)-L-proline] | 0.1 to 5 | –
5 | Cc1c(-c2nc3cc(CN4CCC[C@H]4C(=O)O)c(OC(F)F)cc3o2)cccc1-c1cccc(-c2ccc(CN3CCCC3)cc2F)c1Cl [Example 223, ((2-(2′-chloro-2″-fluoro-2-methyl-4″- (pyrrolidin-1-ylmethyl)-[1,1′:3′,1″-terphenyl]-3-yl)-6-(difluoromethoxy)benzo[d]oxazol-5-yl)methyl)-L-proline] | 0.1 to 5 | –
6 | Cc1c(-c2nc3cc(CN4CCC[C@H]4C(=O)O)c(OC(F)F)cc3o2)cccc1-c1cccc(-c2nc3cc(CN4CCC4(C)N)c(OC(F)F)cc3o2)c1C (stereo partly drawn) [Example 40, ((2-(3′-(5-((2-amino-2-methylazetidin-1-yl)methyl)-6-(difluoromethoxy)benzo[d]oxazol-2-yl)-2,2′-dimethyl-[1,1′-biphenyl]-3-yl)-6-(difluoromethoxy)benzo[d]oxazol-5-yl)methyl)-L-proline] | 0.1 to 5 | –
7 | Cc1c(-c2nc3cc(CN4CCC[C@H]4C(=O)O)c(OC(F)F)cc3o2)cccc1-c1cccc(-c2nc3cc(CN4CC[C@@H](CO)C4)cc(C#N)c3o2)c1C [Example 154, ((2-(3′-(7-cyano-5-(((R)-3-(hydroxymethyl)pyrrolidin-1-yl)methyl)benzo [d]oxazol-2-yl)-2,2′-dimethyl-[1,1′-biphenyl]-3-yl)-6-(difluoromethoxy)benzo[d]oxazol-5-yl)methyl)-L-proline] | 5 to 50 | –
8 | Cc1c(-c2nc3cc(CNCCCNCCO)c(OC(F)F)cc3o2)cccc1-c1cccc(-c2nc3cc(CN4CCC[C@H]4C(=O)O)c(OC(F)F)cc3o2)c1C [Example 58, ((6-(difluoromethoxy)-2-(3′-(6-(difluoromethoxy)-5-(((3-((2-hydroxyethyl)amino)propyl)amino)methyl)benzo[d]oxazol-2-yl)-2,2′-dimethyl-[1,1′-biphenyl]-3-yl)benzo[d]oxazol-5-yl)methyl)-L-proline] | – | 0.79
9 | CCCNCCCNCc1cc2nc(-c3cccc(-c4cccc(-c5nc6cc(CN7CCC[C@H]7C(=O)O)c(OC(F)F)cc6o5)c4C)c3C)oc2cc1OC(F)F [Example 52, ((6-(difluoromethoxy)-2-(3′-(6-(difluoromethoxy)-5-(((3-(propylamino)propyl)amino)methyl)benzo [d]oxazol-2-yl)-2,2′-dimethyl-[1,1′-biphenyl]-3-yl)benzo[d]oxazol-5-yl)methyl)-L-proline] | 0.1 to 5 | –
10 | Cc1c(-c2nc3cc(CN4CC(C)(C)C4)ccc3o2)cccc1-c1cccc(-c2nc3cc(CN4CCC[C@H]4C(=O)O)c(OC(F)F)cc3o2)c1C [Example 312, ((6-(difluoromethoxy)-2-(3′-(5-((3,3-dimethylazetidin-1-yl)methyl)benzo[d]oxazol-2-yl)-2,2′-dimethyl-[1,1′-biphenyl]-3-yl)benzo[d]oxazol-5-yl)methyl)-L-proline] | 0.1 to 5 | –
11 | Cc1c(-c2nc3cc(CN(C)C[C@H]4CCCO4)c(OC(F)F)cc3o2)cccc1-c1cccc(-c2nc3cc(CN4CCC[C@H]4C(=O)O)c(OC(F)F)cc3o2)c1C [Example 30, ((6-(difluoromethoxy)-2-(3′-(6-(difluoromethoxy)-5-((methyl(((R)-tetrahydrofuran-2-yl)methyl)amino)methyl)benzo[d]oxazol-2-yl)-2,2′-dimethyl-[1,1′-biphenyl]-3-yl)benzo[d]oxazol-5-yl)methyl)-L-proline] | 0.1 to 5 | –
12 | Cc1c(-c2nc3cc(CN4CCC[C@H]4C(=O)O)c(OC(F)F)cc3o2)cccc1-c1cccc(-c2nc3cc(CN4CC(C)(CO)C4)cc(C#N)c3o2)c1C [Example 129, ((2-(3′-(7-cyano-5-((3-(hydroxymethyl)-3-methylazetidin-1-yl)methyl)benzo[d]oxazol-2-yl)-2,2′-dimethyl-[1,1′-biphenyl]-3-yl)-6-(difluoromethoxy)benzo[d]oxazol-5-yl)methyl)-L-proline] | – | 1.7
13 | C=Cc1cc(-c2cccc(-c3cccc(-c4nc5cc(CN6CCC[C@H]6C(=O)O)c(OC(F)F)cc5o4)c3C)c2C)ncc1CN1CCCC1 [Example 274, ((6-(difluoromethoxy)-2-(2,2′-dimethyl-3′-(5-(pyrrolidin-1-ylmethyl)-4-vinylpyridin-2-yl)-[1,1′-biphenyl]-3-yl)benzo[d]oxazol-5-yl)methyl)-L-proline] | 0.1 to 5 | –
14 | COc1nc(OCc2cccc(-c3cccc(-c4nc5cc(CN6CCC[C@H]6C(=O)O)c(OC(F)F)cc5o4)c3C)c2C)nc(OC)c1CN1CCCC1 [Example 212, ((6-(difluoromethoxy)-2-(3′-(((4,6-dimethoxy-5-(pyrrolidin-1-ylmethyl)pyrimidin-2-yl)oxy)methyl)-2,2′-dimethyl-[1,1′-biphenyl]-3-yl)benzo[d]oxazol-5-yl)methyl)-L-proline] | – | 8.4
15 | Cc1c(-c2nc3cc(CNCCO)c(OCc4cncc(S(C)(=O)=O)c4)cc3o2)cccc1-c1cccc(-c2nc3cc(CN4CCC[C@H]4C(=O)O)c(OC(F)F)cc3o2)c1C [Example 121, ((6-(difluoromethoxy)-2-(3′-(5-(((2-hydroxyethyl)amino)methyl)-6-((5-(methylsulfonyl)pyridin-3-yl)methoxy)benzo[d]oxazol-2-yl)-2,2′-dimethyl-[1,1′-biphenyl]-3-yl)benzo[d]oxazol-5-yl)methyl)-L-proline] | – | 0.6
16 | Cc1c(-c2nc3cc(CN4CC(C(C)(C)O)C4)c(OC(F)F)cc3o2)cccc1-c1cccc(-c2nc3cc(CN4CCC[C@H]4C(=O)O)c(OC(F)F)cc3o2)c1C [Example 69, ((6-(difluoromethoxy)-2-(3′-(6-(difluoromethoxy)-5-((3-(2-hydroxypropan-2-yl)azetidin-1-yl)methyl)benzo[d]oxazol-2-yl)-2,2′-dimethyl-[1,1′-biphenyl]-3-yl)benzo[d]oxazol-5-yl)methyl)-L-proline] | – | 0.49
17 | Cc1c(-c2nc3cc(CN4CCC45CCC5)ccc3o2)cccc1-c1cccc(-c2nc3cc(CN4CCC[C@H]4C(=O)O)c(OC(F)F)cc3o2)c1C [Example 107, ((2-(3′-(5-((1-azaspiro[3.3]heptan-1-yl)methyl)benzo[d]oxazol-2-yl)-2,2′-dimethyl-[1,1′-biphenyl]-3-yl)-6-(difluoromethoxy)benzo[d]oxazol-5-yl)methyl)-L-proline] | 0.1 to 5 | –
18 | Cc1c(-c2nc3cc(CN4CCC[C@H]4C(=O)O)c(OC(F)F)cc3o2)cccc1-c1cccc(-c2nc3cc(CN4CCC5(C4)CC5(F)F)cc(C#N)c3o2)c1C (stereo partly drawn) [Example 153, ((2-(3′-(7-cyano-5-((1,1-difluoro-5-azaspiro[2.4]heptan-5-yl)methyl)benzo [d]oxazol-2-yl)-2,2′-dimethyl-[1,1′-biphenyl]-3-yl)-6-(difluoromethoxy)benzo[d]oxazol-5-yl)methyl)-L-proline] | 0.1 to 5 | –
19 | Cc1c(-c2nc3c(o2)CCN(CCCO)C3)cccc1-c1cccc(-c2nc3cc(CN4CCC[C@H]4C(=O)O)c(OC(F)F)cc3o2)c1C [Example 199, ((6-(difluoromethoxy)-2-(3′-(5-(3-hydroxypropyl)-4,5,6,7-tetrahydrooxazolo[4,5-c]pyridin-2-yl)-2,2′-dimethyl-[1,1′-biphenyl]-3-yl)benzo[d]oxazol-5-yl)methyl)proline] | 5 to 50 | –
20 | Cc1c(Nc2nccc3cc(CN4CCOCC4)cnc23)cccc1-c1cccc(-c2nc3cc(CN4CCC[C@H]4C(=O)O)c(OC(F)F)cc3o2)c1C [Example 176, ((6-(difluoromethoxy)-2-(2,2′-dimethyl-3′-((3-(morpholinomethyl)-1,7-naphthyridin-8-yl)amino)-[1,1′-biphenyl]-3-yl)benzo[d]oxazol-5-yl)methyl)-L-proline] | – | 0.9
21 | Cc1c(-c2nc3cc(CN4CC[C@@H](C(=O)O)C4)c(OC(F)F)cc3o2)cccc1-c1cccc(-c2nc3cc(CN4CCC(C)C4)cc(C(F)(F)F)c3o2)c1C (stereo partly drawn) [Example 91, (3R)-1-((6-(difluoromethoxy)-2-(2,2′-dimethyl-3′-(5-((3-methylpyrrolidin-1-yl)methyl)-7-(trifluoromethyl)benzo [d]oxazol-2-yl)-[1,1′-biphenyl]-3-yl)benzo[d]oxazol-5-yl)methyl)pyrrolidine-3-carboxylic acid] | 0.1 to 5 | –
22 | Cc1c(-c2nc3cc(CN4CCC[C@H]4C(=O)O)c(OC(F)F)cc3o2)cccc1-c1cccc(-c2ccc(CN3CCCC3)cc2F)c1Cl [Example 222, ((2-(2′-chloro-2″-fluoro-2-methyl-4″- (pyrrolidin-1-ylmethyl)-[1,1′:3′,1″-terphenyl]-3-yl)-6-(difluoromethoxy)benzo[d]oxazol-5-yl)methyl)proline] | 0.1 to 5 | –
